How the values were obtained:
periostin gene = assay: Periostin mRNA expression by real-time PCR in human periodontal ligament cells; format: cell-based; conditions: average of three experiments
Experimental: (§1) Specifically, all experiments were performed with the consent of the patient after obtaining approval from the Hospital's Institutional Review Board, a periodontal ligament tissue attached to the root of a wisdom tooth was isolated and cut into double-sided pieces, placed in a 60 mm dish, and covered with a cover slip, and then cultured in Dulbecco's degenerated Eagle's Medium.
(§2) Total RNA from human periodontal ligament cells was isolated using a TRIzol reagent. cDNA was synthesized using 2 μg of total RNA, 1 μl of reverse transcriptase, and 0.5 μg of oligo (dT). cDNA of synthesized human periodontal ligament cells was used for a real-time polymerase chain reaction using primers shown in Table 2 below. A real-time polymerase chain reaction was performed in ABI PRISM 7500 sequence detection system (Applied Biosystems) using SYBR GREEN PCR Master Mix (Takara, Japan). The real-time polymerase chain reaction was performed at 94° C., 1 min; 95° C., 15 sec-60° C., 34 sec was performed under the condition of repeating 40 cycles. Results were analyzed using a comparative cycle threshold (CT) method.

BSP gene = assay: BSP mRNA expression by real-time PCR in human periodontal ligament cells; format: cell-based; conditions: average of three experiments
Experimental: as §1, §2

CAP gene = assay: CAP mRNA expression by real-time PCR in human periodontal ligament cells; format: cell-based; conditions: average of three experiments
Experimental: as §1, §2

[1] = system: three-wall periodontal defect; assay: Periodontium regeneration in periodontium damage animal model, histological evaluation; format: in vivo; conditions: beagle dog, collagen sponge containing 50 μg peptide, 3 months
Experimental: Four beagle dogs (12-16 kg; […]) were anesthetized by inhalation of Geloran, intravenously injected with Zoletil (5 mg/kg) and Xylazine (0.2-0.5 mg/kg), and then treated with Lidocaine (Lidocaine 2% with 1:80,000 epinephrine). The 4th premolar tooth and the 2nd molar tooth were extracted from the mandible of the beagle dog, and then the dog waited for healing for 3 months. After 3 months of healing, three-wall periodontal defect was induced on distal and mesial surfaces of a 1st molar tooth. Then, a periodontal damage of 4×4×4 mm was formed with the buccal and distal bones remaining around the tooth root, the root alveolar bone is securely removed, tooth root planing was performed using a curette, and then an incisor groove was formed using a ½ round bur. Next, an experimental group was transplanted with a collagen sponge (a peptide solution obtained by dissolving a peptide in physiological saline at a concentration of 1 μg/μl was prepared, 50 μl of a peptide solution was added to the EP tube, and then was soaked for 5 minutes to prepare the collagen sponge) including a 50 μl of peptide (SEQ ID NO: 16 of group 2) prepared in Example 1 at a defect region, After the defect, only a negative control (NC) without any treatment and a collagen sponge (prepared by soaking a collagen sponge in 50 μl of physiological saline for 5 minutes) was placed on the inner bone wall of a bone defect and a transplanted negative control (NC+Plug) was sacrificed 3 months later, and histological evaluation was performed. After 3 months, a beagle dog was sacrificed by administering an excessive amount (90-120 mg/kg) of pentobarbital. A tooth of the beagle dog was extracted, fixed with 10% formalin, and then calcium was removed by adding 5% formic acid, molded, and embedded in paraffin, to obtain a tissue section with a thickness of 5 μm. The obtained tissue section was stained with hematoxylin and eosin or collagen stained (Masson's Trichrome Staining) to confirm periodontal ligament regeneration and then analyzed using by an optical microscope equipped with a digital camera (LEICA ICC50 camera, Germany). After extraction of a 4th premolar tooth and a 2nd molar tooth from the mandibles of 4 beagle dogs, they waited for 3 months to heal, and After 3 months of healing, the 3-mural periodontal defect was induced in distal and mesial surfaces of a 1st molar tooth. Then, periodontium damage of 4×4×4 mm was formed with the buccal and distal bones remaining around the tooth root, the root alveolar bone is securely removed, tooth root planing was performed using a curette, and then an incisor groove was formed. Next, the experimental group transplanted a collagen sponge containing 50 μg of the peptide (SEQ ID NO: 16) of Example 1 to the defect region, and after the defect, a negative control (NC) without any treatment and control (NC+Plug) transplanted by placing only a collagen sponge on the inner bone wall of the bone defect was sacrificed 3 months later for histological evaluation.

[2] = Masson's trichrome stain, FIG. 6

| Substance | PERIOSTIN gene expression, relative mRNA expression level compared to the control, Average (periostin gene) | BSP gene expression, relative mRNA expression level compared to the control, Average (BSP gene) | CAP gene expression, relative mRNA expression level compared to the control, Average (CAP gene) | incorporation of new periodontal ligament fiber bundle into alveolar bone and cementum [1, 2] | new cementum-like tissue formation [1, 2] | new periodontal ligament-like tissue formation [1, 2] | incorporation of new periodontal ligament into alveolar bone and cementum ([1]; hematoxylin/eosin, FIG. 5) | new cementum-like tissue formation ([1]; hematoxylin/eosin, FIG. 5) | new periodontal ligament-like tissue formation ([1]; hematoxylin/eosin, FIG. 5) |
| --- | --- | --- | --- | --- | --- | --- | --- | --- | --- |
| 6 (KYKQKRKNYK) [compound 6] | 2.705 | 2.705 | 2.705 | – | – | – | – | – | – |
| 12 (KYKQRRRSYK) [compound 12] | 2.211 | 2.211 | 2.211 | – | – | – | – | – | – |
| 9 (KYKQRKKSYK) [compound 9] | 2.211 | 2.211 | 2.211 | – | – | – | – | – | – |
| 1 (KYKQRKKNYK) [compound 1] | 2.092 | 2.092 | 2.092 | – | – | – | – | – | – |
| 5 (KYKQKKKNYK) [compound 5] | 2.67 | 2.67 | 2.67 | – | – | – | – | – | – |
| 15 (KYKQKKRSYK) [compound 15] | 2.620 | 2.620 | 2.620 | – | – | – | – | – | – |
| 3 (KYKQRRKNYK) [compound 3] | 2.572 | 2.572 | 2.572 | – | – | – | – | – | – |
| 10 (KYKQRKRSYK) [compound 10] | 2.811 | 2.811 | 2.811 | – | – | – | – | – | – |
| 2 (KYKQRKRNYK) [compound 2] | 2.361 | 2.361 | 2.361 | – | – | – | – | – | – |
| 13 (KYKQKKKSYK) [compound 13] | 2.525 | 2.525 | 2.525 | – | – | – | – | – | – |
| 8 (KYKQKRRNYK) [compound 8] | 2.021 | 2.021 | 2.021 | – | – | – | – | – | – |
| 14 (KYKQKRKSYK) [compound 14] | 2.836 | 2.836 | 2.836 | – | – | – | – | – | – |
| 16 (KYKQKRRSYK) [compound 16] | 2.403 | 2.606 | 2.467 | – | – | – | – | – | – |
| 4 (KYKQRRRNYK) [compound 4] | 2.702 | 2.702 | 2.702 | – | – | – | – | – | – |
| 11 (KYKQRRKSYK) [compound 11] | 2.362 | 2.362 | 2.362 | – | – | – | – | – | – |
| 7 (KYKQKKRNYK) [compound 7] | 2.329 | 2.215 | 2.451 | – | – | – | – | – | – |
| KYKQKRRSYK [SEQ ID NO: 16, Group 2 peptide, 8th amino acid is serine (S)] | – | – | – | A new periodontal ligament fiber bundle was vertically incorporated in the newly formed alveolar bone and cementum | new cementum-like tissue was observed along a tooth root surface | new periodontal ligament-like tissue formation was also observed | New periodontal ligament was incorporated in the newly formed alveolar bone and cementum | new cementum-like tissue was observed along a tooth root surface | new periodontal ligament-like tissue formation was also observed |

— US20230257419A1, “PHARMACEUTICAL COMPOSITION FOR PREVENTING OR TREATING A PERIODONTAL DISEASE OR DISLOCATED TRAUMATIC TOOTH” (HYSENSBIO, priority 2020, published 2023)
